# Measured values taken from a melting point compilation (Tetko et al.; mined from patent text by program, amines drawn as free bases though some values may be those of a salt).
row,SMILES,melting point [°C]
1,COC(=O)c1cccc(C(=O)Nc2cccc3cc(Br)cnc23)c1,157
2,CC(=O)C(=Cc1ccccc1)c1ccncc1,101 to 103
3,CC(C(=O)O)c1ccc2c(c1)C(=O)Cc1cccnc1S2 (stereo not drawn),141 to 143
4,Cc1nn(-c2nnc(S)n2N)c2c1CCCC2,201 to 202
5,Cc1nc(-n2cnn(Cc3ccc(F)cc3)c2=O)sc1C(N)=O,232 to 233
6,CC(C)c1ccc(C2COc3ccc(Br)cc32)cc1 (stereo not drawn),90 to 91
7,O=C1CCCC2ON(Cc3ccccc3)C3C(CSC23)N1 (stereo not drawn),161 to 162
8,CCS(=O)(=O)Nc1c(C)c(C)cc2nc(OC)c(OC)nc12,201 to 203
9,Nc1ccc(C(=O)O)c(C(=O)O)c1,188
10,CCCC(C)(COS(N)(=O)=O)COS(N)(=O)=O,92 to 94
11,O=c1[nH]nc(COc2ccccc2)s1,104 to 105
12,O=C(O)[C@H](CCc1ccc(F)cc1F)NC(=O)C(F)(F)F,62 to 83.5

# Further lines, results first:
row,melting point [°C],SMILES
1,196,Cc1cccc(-c2nc(O)cc(-c3ccccc3Cl)n2)n1
2,156 to 158,CSc1nn(-c2c(Cl)cc(C(F)(F)F)cc2Cl)c2ncnc(-c3ccccc3Cl)c12
3,227 to 228,O=C(Nc1ccc(Cl)c(Cl)c1)c1c(O)c2ccccc2oc1=O
4,71 to 73,FC(F)=Cc1nn(-c2c(Cl)cc(C(F)(F)F)cc2Cl)cc1C1CC1(Br)Br (stereo not drawn)
5,140 to 143,O=C(NCc1ccccc1)c1ccnc(NC(=O)c2cccc(F)c2)c1
6,118 to 119,CN(c1cccc(C(F)(F)F)c1)c1cc(Oc2cccc(C(F)(F)F)c2)ncn1
